System: Mus musculus
Assay: Analgesic activity in mouse assessed as protection against acetic acid-induced writhing at one-tenth of LD50 administered subcutaneously 30 mins before acetic acid challenge measured after 4 hrs relative to control
Format: functional
Conditions: not given

SMILES	Activity
CN(C)c1ccc(C2CC(c3c(O)ccc4c(-c5ccccc5)cc(=O)oc34)=NN2)cc1 (stereo not given)	2.11%
COc1cc(OC)c(-c2cc(-c3c(O)ccc4c(-c5ccccc5)cc(=O)oc34)[nH]c(=O)c2C#N)c(OC)c1	1.41%
COc1ccc(/C=C/C(=O)c2c(O)ccc3c(-c4ccccc4)cc(=O)oc23)cc1	3.52%
COc1ccc(C2CC(c3c(O)ccc4c(-c5ccccc5)cc(=O)oc34)=NN2c2ccccc2)cc1 (stereo not given)	6.63%
O=c1cc(-c2ccccc2)c2ccc(O)c(C3=NNC(c4ccc(Cl)cc4)C3)c2o1 (stereo not given)	1.18%

System: Rattus norvegicus
Assay: Antipyretic activity against yeast-induced hyperpyrexia in hyperthermic rat assessed as rectal temperature at one-tenth of LD50 administered subcutaneously 18 hrs after yeast challenge measured after 1 hr (Rvb=39.24 +/- 0.22 degC)
Format: functional
Conditions: not given

SMILES	Activity
CN(C)c1ccc(C2CC(c3c(O)ccc4c(-c5ccccc5)cc(=O)oc34)=NN2)cc1 (stereo not given)	38.91 °C
COc1cc(OC)c(-c2cc(-c3c(O)ccc4c(-c5ccccc5)cc(=O)oc34)[nH]c(=O)c2C#N)c(OC)c1	38.91 °C
COc1ccc(/C=C/C(=O)c2c(O)ccc3c(-c4ccccc4)cc(=O)oc23)cc1	38.91 °C
COc1ccc(C2CC(c3c(O)ccc4c(-c5ccccc5)cc(=O)oc34)=NN2c2ccccc2)cc1 (stereo not given)	38.51 °C
O=c1cc(-c2ccccc2)c2ccc(O)c(C3=NNC(c4ccc(Cl)cc4)C3)c2o1 (stereo not given)	38.9 °C

System: Rattus norvegicus
Assay: Antipyretic activity against yeast-induced hyperpyrexia in hyperthermic rat assessed as rectal temperature at one-tenth of LD50 administered subcutaneously 18 hrs after yeast challenge measured after 2 hrs (Rvb=39.11 +/- 0.26 degC)
Format: functional
Conditions: not given

SMILES	Activity
CN(C)c1ccc(C2CC(c3c(O)ccc4c(-c5ccccc5)cc(=O)oc34)=NN2)cc1 (stereo not given)	38.9 °C
COc1cc(OC)c(-c2cc(-c3c(O)ccc4c(-c5ccccc5)cc(=O)oc34)[nH]c(=O)c2C#N)c(OC)c1	38.91 °C
COc1ccc(/C=C/C(=O)c2c(O)ccc3c(-c4ccccc4)cc(=O)oc23)cc1	38.91 °C
COc1ccc(C2CC(c3c(O)ccc4c(-c5ccccc5)cc(=O)oc34)=NN2c2ccccc2)cc1 (stereo not given)	38.14 °C
O=c1cc(-c2ccccc2)c2ccc(O)c(C3=NNC(c4ccc(Cl)cc4)C3)c2o1 (stereo not given)	38.84 °C

System: Rattus norvegicus
Assay: Antipyretic activity against yeast-induced hyperpyrexia in hyperthermic rat assessed as rectal temperature at one-tenth of LD50 administered subcutaneously 18 hrs after yeast challenge measured after 3 hrs (Rvb=39.20 +/- 0.24 degC)
Format: functional
Conditions: not given

SMILES	Activity
CN(C)c1ccc(C2CC(c3c(O)ccc4c(-c5ccccc5)cc(=O)oc34)=NN2)cc1 (stereo not given)	38.91 °C
COc1cc(OC)c(-c2cc(-c3c(O)ccc4c(-c5ccccc5)cc(=O)oc34)[nH]c(=O)c2C#N)c(OC)c1	38.81 °C
COc1ccc(/C=C/C(=O)c2c(O)ccc3c(-c4ccccc4)cc(=O)oc23)cc1	38.95 °C
COc1ccc(C2CC(c3c(O)ccc4c(-c5ccccc5)cc(=O)oc34)=NN2c2ccccc2)cc1 (stereo not given)	38.44 °C
O=c1cc(-c2ccccc2)c2ccc(O)c(C3=NNC(c4ccc(Cl)cc4)C3)c2o1 (stereo not given)	38.9 °C

System: Rattus norvegicus
Assay: Antipyretic activity against yeast-induced hyperpyrexia in hyperthermic rat assessed as rectal temperature at one-tenth of LD50 administered subcutaneously 18 hrs after yeast challenge measured after 4 hrs (Rvb=39.17 +/- 0.20 degC)
Format: functional
Conditions: not given

SMILES	Activity
CN(C)c1ccc(C2CC(c3c(O)ccc4c(-c5ccccc5)cc(=O)oc34)=NN2)cc1 (stereo not given)	38.91 °C
COc1cc(OC)c(-c2cc(-c3c(O)ccc4c(-c5ccccc5)cc(=O)oc34)[nH]c(=O)c2C#N)c(OC)c1	38.91 °C
COc1ccc(/C=C/C(=O)c2c(O)ccc3c(-c4ccccc4)cc(=O)oc23)cc1	39.11 °C
COc1ccc(C2CC(c3c(O)ccc4c(-c5ccccc5)cc(=O)oc34)=NN2c2ccccc2)cc1 (stereo not given)	38.87 °C
O=c1cc(-c2ccccc2)c2ccc(O)c(C3=NNC(c4ccc(Cl)cc4)C3)c2o1 (stereo not given)	38.91 °C

System: not listed separately
Assay: Toxicity in sc dosed albino mouse up to 24 hrs
Format: organism-based
Conditions: in vivo

SMILES	LD50 at 24 h
CN(C)c1ccc(C2CC(c3c(O)ccc4c(-c5ccccc5)cc(=O)oc34)=NN2)cc1 (stereo not given)	310 mg/kg
COc1cc(OC)c(-c2cc(-c3c(O)ccc4c(-c5ccccc5)cc(=O)oc34)[nH]c(=O)c2C#N)c(OC)c1	390 mg/kg
COc1ccc(/C=C/C(=O)c2c(O)ccc3c(-c4ccccc4)cc(=O)oc23)cc1	290 mg/kg
COc1ccc(C2CC(c3c(O)ccc4c(-c5ccccc5)cc(=O)oc34)=NN2c2ccccc2)cc1 (stereo not given)	370 mg/kg
O=c1cc(-c2ccccc2)c2ccc(O)c(C3=NNC(c4ccc(Cl)cc4)C3)c2o1 (stereo not given)	310 mg/kg

System: Rattus norvegicus
Assay: Antiinflammatory activity against carrageenan-induced foot paw edema in rat assessed as reduction in paw size at one-tenth of LD50 administered subcutaneously 30 mins before carrageenan challenge measured after 3 hrs relative to control
Format: functional
Set-up: scale not given: the % may be the effect or the level left
Conditions: not given

SMILES	Activity
CN(C)c1ccc(C2CC(c3c(O)ccc4c(-c5ccccc5)cc(=O)oc34)=NN2)cc1 (stereo not given)	8.7%
COc1cc(OC)c(-c2cc(-c3c(O)ccc4c(-c5ccccc5)cc(=O)oc34)[nH]c(=O)c2C#N)c(OC)c1	5.78%
COc1ccc(/C=C/C(=O)c2c(O)ccc3c(-c4ccccc4)cc(=O)oc23)cc1	12.35%
COc1ccc(C2CC(c3c(O)ccc4c(-c5ccccc5)cc(=O)oc34)=NN2c2ccccc2)cc1 (stereo not given)	18.85%
O=c1cc(-c2ccccc2)c2ccc(O)c(C3=NNC(c4ccc(Cl)cc4)C3)c2o1 (stereo not given)	17.4%

System: Mus musculus
Assay: Analgesic activity in mouse assessed as protection against acetic acid-induced writhing at one-tenth of LD50 administered subcutaneously 30 mins before acetic acid challenge measured after 1 hr relative to control
Format: functional
Conditions: not given

SMILES	Activity
CN(C)c1ccc(C2CC(c3c(O)ccc4c(-c5ccccc5)cc(=O)oc34)=NN2)cc1 (stereo not given)	1.41%
COc1cc(OC)c(-c2cc(-c3c(O)ccc4c(-c5ccccc5)cc(=O)oc34)[nH]c(=O)c2C#N)c(OC)c1	0.47%
COc1ccc(/C=C/C(=O)c2c(O)ccc3c(-c4ccccc4)cc(=O)oc23)cc1	9.41%
COc1ccc(C2CC(c3c(O)ccc4c(-c5ccccc5)cc(=O)oc34)=NN2c2ccccc2)cc1 (stereo not given)	41.23%
O=c1cc(-c2ccccc2)c2ccc(O)c(C3=NNC(c4ccc(Cl)cc4)C3)c2o1 (stereo not given)	0.71%

System: Mus musculus
Assay: Analgesic activity in mouse assessed as protection against acetic acid-induced writhing at one-tenth of LD50 administered subcutaneously 30 mins before acetic acid challenge measured after 2 hrs relative to control
Format: functional
Conditions: not given

SMILES	Activity
CN(C)c1ccc(C2CC(c3c(O)ccc4c(-c5ccccc5)cc(=O)oc34)=NN2)cc1 (stereo not given)	1.64%
COc1cc(OC)c(-c2cc(-c3c(O)ccc4c(-c5ccccc5)cc(=O)oc34)[nH]c(=O)c2C#N)c(OC)c1	0.7%
COc1ccc(/C=C/C(=O)c2c(O)ccc3c(-c4ccccc4)cc(=O)oc23)cc1	9.41%
COc1ccc(C2CC(c3c(O)ccc4c(-c5ccccc5)cc(=O)oc34)=NN2c2ccccc2)cc1 (stereo not given)	39.09%
O=c1cc(-c2ccccc2)c2ccc(O)c(C3=NNC(c4ccc(Cl)cc4)C3)c2o1 (stereo not given)	1.65%

System: Mus musculus
Assay: Analgesic activity in mouse assessed as protection against acetic acid-induced writhing at one-tenth of LD50 administered subcutaneously 30 mins before acetic acid challenge measured after 3 hrs relative to control
Format: functional
Conditions: not given

SMILES	Activity
CN(C)c1ccc(C2CC(c3c(O)ccc4c(-c5ccccc5)cc(=O)oc34)=NN2)cc1 (stereo not given)	2.35%
COc1cc(OC)c(-c2cc(-c3c(O)ccc4c(-c5ccccc5)cc(=O)oc34)[nH]c(=O)c2C#N)c(OC)c1	0.7%
COc1ccc(/C=C/C(=O)c2c(O)ccc3c(-c4ccccc4)cc(=O)oc23)cc1	9.41%
COc1ccc(C2CC(c3c(O)ccc4c(-c5ccccc5)cc(=O)oc34)=NN2c2ccccc2)cc1 (stereo not given)	18.24%
O=c1cc(-c2ccccc2)c2ccc(O)c(C3=NNC(c4ccc(Cl)cc4)C3)c2o1 (stereo not given)	1.65%

Reference: ChEMBL document CHEMBL1154088, “Synthesis, biological evaluation and docking studies of novel benzopyranone congeners for their expected activity as anti-inflammatory, analgesic and antipyretic agents” (Bioorg Med Chem, 2009)
